Usually Ki stands for the equilibrium dissociation constant of an inhibitor or competing ligand from its target.

The source of these data is patent US20240409566A1, “DELIVERY OF THERAPEUTIC ALKALOID COMPOUNDS” (priority 2022, published 2024).

Data set [1] in a line: Plasma stability assay, human plasma. In kind it is in vitro ADME. To be noted: human, 10 µM. How it is done:
(§1) Compound stability in rat and human plasma was measured by incubating compound with rat or human plasma at 37° C. in a microwell plate for sequential time points, monitoring pro-drug disappearance and metabolite appearance (mesembranol or 6-epi-mesembranol). A 2 mM stock solution of test compounds were prepared by dissolving appropriate amount of compounds in DMSO. The 2 mM stock was further diluted 200-folds in rat or human plasma to attain a final concentration of 10 μM respectively (0.5% DMSO). 50 μL aliquots of positive controls and test compounds spiked into rat or human plasma (n=2) were added to a pre-warmed plate (37° C.) and shaken at 50 rpm. At each respective time point, the reaction was stopped by adding 500 μL of acetonitrile containing internal standards (100 nM aprozolam, 200 nM caffeine, 100 nM tolbutamide). All samples were vortexed for 10 minutes, followed by centrifugation at 3,220 g for 30 minutes to precipitate proteins. 100 μL of the supernatant is transferred to a new plate. The supernatant will be diluted with ultrapure water according to the LC-MS signal response and peak shape. The concentrations of test compounds and positive control were quantified in the test samples using LC-MS/MS. Results reported as % of prodrug compound remaining at time point, and % of metabolite (mesembranol or 6-epi-mesembranol,) accumulated at time point.

A short description of data set [2]: Plasma stability assay, rat plasma. To be noted: rat, 10 µM. The data set is classed as in vitro ADME. On the procedure: as §1
In data set [3] the target is 5-HT transporter (SERT) (Homo sapiens (Human), UniProt P31645). To be noted: cited from earlier work.

As to `CCOC(=O)O[C@@H]1CC[C@@]2(c3ccc(OC)c(OC)c3)CCN(C)[C@H]2C1` [Compound 209, (3aS,6R,7aS)-3a-(3,4-dimethoxyphenyl)-1-methyloctahydro-1H-indol-6-yl ethyl carbonate], the “Prodrug (%)” value in data set [1] (0 min) is 100.0%; in data set [1] (10 min) it was 96.0%; in data set [1] (30 min) it was 91.8%; in data set [1] (60 min), 87.6%; in data set [1] (120 min) it was 84.1%; in data set [1] (240 min) it was 72.5%. The “Prodrug (%)” value in data set [2] (0 min) is listed as 100.0%; in data set [2] (10 min) it was 11.5%; in data set [2] (30 min), 0.0%; in data set [2] (60 min) it was 0.0%; in data set [2] (120 min), 0.0%; in data set [2] (240 min) it was 0.0%.
In the case of `CCCC(=O)OCO[C@@H]1CC[C@@]2(c3ccc(OC)c(OC)c3)CCN(C)[C@H]2C1` [Compound 210, (((3aS,6R,7aS)-3a-(3,4-dimethoxyphenyl)-1-methyloctahydro-1H-indol-6-yl)oxy)methyl butyrate], the “Prodrug (%)” value in data set [1] (0 min) came to 100.0%; in data set [1] (10 min), 0.5%; in data set [1] (30 min), 1.0%; in data set [1] (60 min), 0.6%; in data set [1] (120 min), 0.1%; in data set [1] (240 min) it was 0.1%. In addition, the “Prodrug (%)” value in data set [2] (0 min) is 100.0%; in data set [2] (10 min), 0.0%; in data set [2] (30 min), 0.0%; in data set [2] (60 min), 0.0%; in data set [2] (120 min), 0.1%; in data set [2] (240 min), 0.1%.
As to `COc1ccc(C23C=CC(O)CC2N(C)CC3)cc1OC` (centres unmarked) [Mesembrenol], the “nH, 5-HT transporter (SERT)” value in data set [3] (Hill coefficient of concentration response curves) is reported as 1.1. Further, the inhibitory constant (Ki) in data set [3] (concentration response curves, binding) was 62 nM.
